The target in one assay is T1, human V1a receptor (Homo sapiens, UniProt P37288).
T1 construct: expressed in transfected cells; host or cells: CHO K1 (ATCC), constitutively expressing modified aequorin
Description: Cellular in vitro assay for vasopressin receptor activity (aequorin luminescence, CHO K1 cells), hV1a. It counts as cell-based. The conditions noted are these: CHO cell line transfected with human V1a receptor, agonist [Arg8]-vasopressin. The source says: (§1) The identification of agonists and antagonists of the V1a and V2 vasopressin receptors from humans and rats and also the quantification of the activity of the substances described here took place using recombinant cell lines. These cells derive originally from a hamster ovary epithelial cell (Chinese Hamster Ovary, CHO K1, ATCC: American Type Culture Collection, Manassas, Va. 20108, USA). The test cell lines constitutively express a modified form of the calcium-sensitive photoprotein aequorin, which, after reconstitution with the cofactor coelenterazine, emits light when there are increases in the free calcium concentration (Rizzuto R., Simpson A. W., Brini M., Pozzan T.; Nature 358 (1992) 325-327). In addition, the cells are stably transfected with the human or rat V1a or V2 receptors. In the case of the Gs-coupling V2 receptors, the cells are stably transfected with a further gene, which codes for the promiscuous Gα16 protein (Amatruda T. T., Steele D. A., Slepak V. Z., Simon M. I., Proc. Nat. Acad. Sci. USA 88 (1991), 5587-5591), either independently or as a fusion gene. The resulting vasopressin receptor test cells react to stimulation of the recombinantly expressed vasopressin receptors by intracellular release of calcium ions, which can be quantified by the resulting aequorin luminescence using a suitable luminometer (Milligan G., Marshall F., Rees S., Trends in Pharmaco. Sci. 17 (1996) 235-237).
(§2) Test procedure: On the day before the assay, the cells are plated out in culture medium (DMEM, 10% FCS, 2 mM glutamine, 10 mM HEPES) in 384-well microtiter plates and kept in a cell incubator (96% humidity, 5% v/v carbon dioxide, 37° C.). On the day of the assay, the culture medium is replaced by a Tyrode solution (140 mM sodium chloride, 5 mM potassium chloride, 1 mM magnesium chloride, 2 mM calcium chloride, 20 mM glucose, 20 mM HEPES), which additionally contains the cofactor coelenterazine (50 μM), and the microtiter plate is then incubated for a further 3-4 hours. The test substances in various concentrations are placed for 10 to 20 minutes in the wells of the microtiter plate before the agonist [Arg8]-vasopressin is added, and the resulting light signal is measured immediately in the luminometer. The IC50 values are calculated using the GraphPad PRISM computer program (Version 3.02).
(§3) The table below lists representative IC50 values for the compounds of the invention on the cell line transfected with the human V1a or V2 receptor: […]

A further assay concerns the target T2, human V2 receptor (Homo sapiens, UniProt P30518).
T2 construct: expressed in transfected cells; host or cells: CHO K1 (ATCC), constitutively expressing modified aequorin and co-transfected with Gα16
Briefly: Cellular in vitro assay for vasopressin receptor activity (aequorin luminescence, CHO K1 cells), hV2. It counts as cell-based. The conditions noted are these: CHO cell line transfected with human V2 receptor and Gα16, agonist [Arg8]-vasopressin.
Source text: as §1, §2, §3

T2 sequence (P30518 whole entry): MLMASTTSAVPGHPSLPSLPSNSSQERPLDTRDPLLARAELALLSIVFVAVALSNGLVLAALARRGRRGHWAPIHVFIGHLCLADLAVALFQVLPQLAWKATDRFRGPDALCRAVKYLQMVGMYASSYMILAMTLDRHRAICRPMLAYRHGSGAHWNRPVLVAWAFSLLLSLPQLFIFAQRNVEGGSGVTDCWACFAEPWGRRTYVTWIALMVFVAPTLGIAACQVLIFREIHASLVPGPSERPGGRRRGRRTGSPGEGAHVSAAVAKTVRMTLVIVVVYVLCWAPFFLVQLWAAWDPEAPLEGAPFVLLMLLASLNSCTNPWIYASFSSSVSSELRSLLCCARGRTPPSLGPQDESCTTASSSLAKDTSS
T1 sequence (P37288 whole entry): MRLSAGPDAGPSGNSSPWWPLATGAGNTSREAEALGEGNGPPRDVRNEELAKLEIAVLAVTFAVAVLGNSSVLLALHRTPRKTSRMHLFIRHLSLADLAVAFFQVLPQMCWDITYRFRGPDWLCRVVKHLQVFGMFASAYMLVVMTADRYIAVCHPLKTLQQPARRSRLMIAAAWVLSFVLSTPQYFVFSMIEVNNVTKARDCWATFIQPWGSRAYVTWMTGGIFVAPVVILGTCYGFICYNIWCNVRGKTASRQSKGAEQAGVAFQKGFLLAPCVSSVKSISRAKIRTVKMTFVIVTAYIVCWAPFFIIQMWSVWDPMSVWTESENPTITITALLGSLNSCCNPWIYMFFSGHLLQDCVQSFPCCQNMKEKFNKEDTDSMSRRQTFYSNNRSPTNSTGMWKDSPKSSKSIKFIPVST

For orientation: IC50 means the midpoint of a concentration-inhibition curve. A higher IC50 goes with weaker potency. Consider `CC(NC(=O)Cn1nc(-c2ccc(Cl)cc2)n(Cc2ccccc2F)c1=O)(C(N)=O)c1cccc(C(F)(F)F)c1` (single isomer, unassigned) [Example 25, 2-({[3-(4-Chlorophenyl)-4-(2-fluorobenzyl)-5-oxo-4,5-dihydro-1H-1,2,4-triazol-1-yl]acetyl}amino)-2-[3-(trifluoromethyl)phenyl]propanamide], for which the values for the IC50 on human V1a receptor and at human V2 receptor were 6 nM and 16 nM, respectively.

For the molecule `CCC(NC(=O)Cn1nc(-c2ccc(Cl)cc2)n(C[C@H](O)C(F)(F)F)c1=O)(C(N)=O)c1cccc(C(F)(F)F)c1` (single isomer, unassigned) [Example 14], the IC50 was 6 nM at human V1a receptor and 6.4 nM at human V2 receptor.

For the molecule `CC(NC(=O)Cn1nc(-c2ccc(Cl)cc2)n(C[C@H](O)C(F)(F)F)c1=O)(C(=O)O)c1cccc(C(F)(F)F)c1` (stereo partly drawn) [Example 1, 2-[({3-(4-Chlorophenyl)-5-oxo-4-[(2S)-3,3,3-trifluoro-2-hydroxypropyl]-4,5-dihydro-1H-1,2,4-triazol-1-yl}acetyl)amino]-2-[3-(trifluoromethyl)phenyl]propanoic acid], the IC50 on human V1a receptor came to 118 nM; on human V2 receptor it was 12 nM.

Take `C[C@](NC(=O)Cn1nc(-c2ccc(Cl)cc2)n(C[C@H](O)C(F)(F)F)c1=O)(C(N)=O)c1ccccc1Cl` [Example 17, (2R)-2-(2-Chlorophenyl)-2-[({3-(4-chlorophenyl)-5-oxo-4-[(2S)-3,3,3-trifluoro-2-hydroxypropyl]-4,5-dihydro-1H-1,2,4-triazol-1-yl}acetyl)amino]propanamide]: the results for the IC50 at human V1a receptor and on human V2 receptor were 12 nM and 220 nM, respectively.

With `C[C@@](NC(=O)Cn1nc(-c2ccc(Cl)cc2)n(C[C@H](O)C(F)(F)F)c1=O)(C(N)=O)c1cccc(C(F)(F)F)c1` [Example 3, (2S)-2-[({3-(4-Chlorophenyl)-5-oxo-4-[(2S)-3,3,3-trifluoro-2-hydroxypropyl]-4,5-dihydro-1H-1,2,4-triazol-1-yl}acetyl)amino]-2-[3-(trifluoromethyl)phenyl]propanamide], the IC50 was 106 nM at human V1a receptor and 28 nM at human V2 receptor.

As for `C[C@](NC(=O)Cn1nc(-c2ccc(Cl)cc2)n(/C=C/C(F)(F)F)c1=O)(C(N)=O)c1cccc(C(F)(F)F)c1` [Example 19, (2R)-2-[({3-(4-Chlorophenyl)-5-oxo-4-[(1E)-3,3,3-trifluoroprop-1-en-1-yl]-4,5-dihydro-1H-1,2,4-triazol-1-yl}acetyl)amino]-2-[3-(trifluoromethyl)phenyl]propanamide], the IC50 stood at 13 nM at human V1a receptor and 14 nM at human V2 receptor.

With `C[C@](NC(=O)Cn1nc(-c2ccc(Cl)cc2)n(C[C@H](O)C(F)(F)F)c1=O)(C(N)=O)c1cccc(C(F)(F)F)c1` [Example 4, (2R)-2-[({3-(4-Chlorophenyl)-5-oxo-4-[(2S)-3,3,3-trifluoro-2-hydroxypropyl]-4,5-dihydro-1H-1,2,4-triazol-1-yl}acetyl)amino]-2-[3-(trifluoromethyl)phenyl]propanamide], the IC50 was found to be 2.2 nM on human V1a receptor and 3.7 nM at human V2 receptor.

These data come from US20120053218A1, “TRIAZOLE DERIVATIVES AS VASOPRESSIN-RECEPTOR INHIBITORS FOR TREATING CARDIAC INSUFFICIENCY” (BAYER PHARMA AKTIENGESELLSCHAFT, priority 2009, published 2012).
